Measured values as given in US9192601B2, “Methods for enhancing muscle performance and tone” (Salk Institute for Biological Studies, priority 2006, dated 2015).

Legend:
C57B/6J mice = assay: Treadmill running endurance test; format: in vivo, mouse; details: 500 mg/kg/day, 4 weeks, no exercise
Description: Mice were acclimated to moderate treadmill running (10 m/min for 15 min) every other day for 1 week. After acclimation, basal running endurance was determined by placing each mouse on a treadmill, gradually increasing the speed from 0 to 15 m/min, and maintaining 15 m/min until the mouse was exhausted. The time and distance run until exhaustion were recorded as the basal endurance values (Week 0).
Treatments were administered orally.
Expression of biomarkers characteristic of an oxidative phenotype in skeletal muscle, typically, has been correlated with increased oxidative performance (e.g., increased running endurance) of such skeletal muscle. […] Accordingly, to determine the functional effects of ligand, age and weight matched cohorts of treated and control mice were subjected to an endurance treadmill performance test before (week 0) and after (week 5) treatment.
In addition to affecting the contractile apparatus of skeletal muscle, exercise training also increases skeletal muscle mitochondrial density (e.g., Freyssenet et al., Arch. Physiol. Biochem., 104(2): 129-141, 1996). […] Mice in all groups were acclimated to moderate treadmill running and basal running endurance was determined as described in Example 1. Thereafter, mice in the exercise-trained groups received four weeks (5 days/week) of exercise training on a treadmill inclined at 5 degrees. […] At the end of four weeks, all exercise-trained mice were running for 50 min/day at 18 m/min. […] Unless otherwise noted, V, GW, Tr and GW+Tr subjects described in this and the examples below were similarly treated. At the end of the drug treatment and/or training protocol (Week 5) 6 mice per group were subjected to the running test. […] RNA was prepared real time quantitative PCR performed as described in Example 1.
At the end of the drug treatment and/or training protocol (Week 5) 6 mice per group were subjected to the running test.
At the end of the drug treatment and/or training protocol (Week 5), running endurance of six mice per group was determined in the same manner as was basal running endurance. […] on three mice in each group to confirm that changes observed in the skeletal muscle were not due to the acute run, but were related to the exercise training.

AMPK = assay: Western blot of phospho-AMPK in quadriceps; format: in vivo, mouse; details: AICAR 500 mg/kg/day, 4 weeks, quadriceps
Source text: Exercise training is known to activate kinases, such as p44/42 MAPK and AMPK, which regulate gene expression in skeletal muscle (Chen et al., Diabetes, 52:2205-12, 2003; Goodyear et al., Am. J. Physiol, 271:[…]-8, 1996). AMPK affects skeletal muscle gene expression and oxidative metabolism (Chen et al., Diabetes. 52: 2205-12, 2003, Reznick et al., J. Physiol. 574: 33-9, 2006). The interaction between exercise-regulated kinases and PPARδ signaling is described in this Example. The levels of phospho-p44/42 MAPK and phospho-AMPK a subunit and total AMPK were determined in protein homogenates of quadriceps muscle by Western blot. Antibodies specific for phospho-p44/42 MAPK, phospho- and total-AMPK αl antibodies were obtained from Cell Signaling. The phospho-specific AMPK αl antibody recognizes the key activating threonine in the activation loop.

Oxygen consumption = format: in vivo, mouse; details: AICAR 500 mg/kg/day, 4 weeks
quadriceps muscle = assay: Microarray analysis of quadriceps (Affymetrix mouse genome 430A 2.0); format: in vivo
[1] = test system: myoglobin, UCP3, cytochrome c (CYCS) and SCDl; assay: Western blotting of oxidative biomarkers in quadriceps; format: in vivo, mouse; details: AICAR 500 mg/kg/day, 4 weeks, quadriceps
Description: In addition to gene expression, protein expression was determined for selective oxidative biomarkers including myoglobin, UCP3, cytochrome c (CYCS) and SCDl, using Western blotting. Protein homogenates were prepared from quadriceps muscle, separated by SDS polyacrylamide gel electrophoresis, transferred to blotting membrane and probed with antibodies specific for myoglobin (Dako), UCP3 (Affinity Bioreagents), cytochrome c (Santacruz) SCDl (Santacruz), and, as a loading control, tubulin (Sigma).

[2] = AICAR alone, untrained mice, quadriceps

With NC(=O)c1ncn([C@@H]2O[C@H](CO)[C@@H](O)[C@H]2O)c1N [AICAR, 5-amino-4-imidazolecarboxamide riboside] the “ran further than vehicle-treated mice (distance)” value (C57B/6J mice) was about 44%, the “ran longer than vehicle-treated mice (time)” value (C57B/6J mice) was about 23% and the “phosphorylation of AMPK a subunit and acetyl CoA carboxylase (ACC)” value (AMPK) was “increased phosphorylation”. The oxygen consumption (Oxygen consumption) was “increased”, the Aacs expression (quadriceps muscle; [2]) was 1.875 and the Acly expression (quadriceps muscle; [2]) was 1.687. It also gave an Adipoq expression (quadriceps muscle; [2]) of 2.043, an Ak2 expression (quadriceps muscle; [2]) of 1.486 and an Apoe expression (quadriceps muscle; [2]) of 1.403. For the same molecule, the Cd36 expression (quadriceps muscle; [2]) was 1.386, the Ces3 expression (quadriceps muscle; [2]) was 1.516 and the Cidea expression (quadriceps muscle; [2]) was 5.021. The Dgat2 expression (quadriceps muscle; [2]) was 2.034, the Elovl6 expression (quadriceps muscle; [2]) was 2.134 and the Fabp4 expression (quadriceps muscle; [2]) was 1.709. It also gave a Fasn expression (quadriceps muscle; [2]) of 2.098, a Lep expression (quadriceps muscle; [2]) of 2.047 and a Lipe expression (quadriceps muscle; [2]) of 1.64. For the same molecule, the Lpl expression (quadriceps muscle; [2]) was 1.386, the Mgll expression (quadriceps muscle; [2]) was 1.503 and the Mgst1 expression (quadriceps muscle; [2]) was 1.602. The Nrip1 expression (quadriceps muscle; [2]) was 1.474, the Pck1 expression (quadriceps muscle; [2]) was 2.68 and the Pcx expression (quadriceps muscle; [2]) was 1.393. The Pdk4 expression (quadriceps muscle; [2]) was 1.321, the Pparg expression (quadriceps muscle; [2]) was 3.027 and the Retn expression (quadriceps muscle; [2]) was 1.891. For the same molecule, the Scd1 expression (quadriceps muscle; [2]) was 1.931, the Sdhd expression (quadriceps muscle; [2]) was 1.529 and the Sfxn1 expression (quadriceps muscle; [2]) was 1.713. The Slc25a5 expression (quadriceps muscle; [2]) was 1.372, the Sult1a1 expression (quadriceps muscle; [2]) was 2.021 and the Tspo expression (quadriceps muscle; [2]) was 1.441. The Ucp1 expression (quadriceps muscle; [2]) was 3.623, the Ucp3 expression (quadriceps muscle; [2]) was 1.258 and the “number of upregulated genes linked to oxidative metabolism” value (quadriceps muscle; AICAR treatment alone) was 32 genes. The “expression of UCP3 (immunoblot)” value [1] was “increased expression”.
